SMILES strings stand for the structures. Non-standard residues stand in square brackets, D forms with d. Residues, ends and D or L forms follow the SMILES beside them. Cha = N[C@@H](CC1CCCCC1)C(=O)O; Ac6c = NC1(C(=O)O)CCCCC1; Nle = CCCC[C@H](N)C(=O)O; Aib = CC(C)(N)C(=O)O

The first test deals with T1, PTH receptor present on SaOS-2 (human osteosarcoma cells) (Homo sapiens, UniProt Q03431).
T1 construct: host or cells: SaOS-2 human osteosarcoma cells (intact, confluent monolayers)
T1 sequence (Q03431 27-593): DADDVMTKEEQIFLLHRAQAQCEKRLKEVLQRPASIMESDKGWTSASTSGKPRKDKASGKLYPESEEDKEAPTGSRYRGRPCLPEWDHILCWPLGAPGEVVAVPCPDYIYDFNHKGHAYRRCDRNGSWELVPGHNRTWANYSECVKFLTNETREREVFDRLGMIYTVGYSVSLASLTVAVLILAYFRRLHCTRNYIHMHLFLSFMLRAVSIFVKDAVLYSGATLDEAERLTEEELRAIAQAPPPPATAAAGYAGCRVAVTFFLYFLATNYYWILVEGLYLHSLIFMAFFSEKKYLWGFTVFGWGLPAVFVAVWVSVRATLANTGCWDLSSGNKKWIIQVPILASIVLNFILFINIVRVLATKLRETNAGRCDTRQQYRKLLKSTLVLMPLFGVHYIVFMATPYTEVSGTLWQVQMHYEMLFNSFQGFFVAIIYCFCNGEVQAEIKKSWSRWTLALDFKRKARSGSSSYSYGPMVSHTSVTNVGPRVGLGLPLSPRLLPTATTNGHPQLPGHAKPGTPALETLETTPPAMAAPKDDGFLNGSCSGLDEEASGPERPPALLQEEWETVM
The test can be described thus: Binding to PTH receptor on SaOS-2 cells (competition with mono-125I-[Nle8,18,Tyr34(3-125I)]bPTH(1-34)NH2). The note with it: Table I, 2 hrs at room temperature, read-out: Kd (half maximal inhibition of binding of mono-125I-[Nle8,18, Tyr34(3-125I)]bPTH(1-34)NH2). As to the method: A. Binding to PTH Receptor
The peptides of the invention were tested for their ability to bind to the PTH receptor present on SaOS-2 (human osteosarcoma cells). SaOS-2 cells (American Type Culture Collection, Rockville, Md.; ATCC #HTB 85) were maintained in RPMI 1640 medium (Sigma, St. Louis, Mo.) supplemented with 10% fetal bovine serum (FBS) and 2 mM glutamine at 37EC in a humidified atmosphere of 5% CO2 in air. The medium was changed every three or four days, and the cells were subcultured every week by trypsinization.
SaOS-2 cells were maintained for four days until they had reached confluence. The medium was replaced with 5% FBS in RPMI 1640 medium and incubated for 2 hrs at room temperature with 10×10^4 cpm mono-^125I-[Nle^8,18, Tyr^34(3-^125I)]bPTH(1-34)NH2 in the presence of a competing peptides of the invention at various concentrations between 10^−11 M to 10^−4 M. The cells were washed four times with ice-cold PBS and lysed with 0.1 M NaOH, and the radioactivity associated with the cells was counted in a scintillation counter. Synthesis of mono-^125I-[Nle^8,18, Tyr^34(3-^125I)]bPTH(1-34)NH2 was carried out as described in Goldman, M. E., et al., Endocrinol., 123:1468 (1988).
The binding assay was conducted with various peptides of the invention, and the Kd value (half maximal inhibition of binding of mono-^125I-[Nle^8,18, Tyr^34(3-^125I)]bPTH(1-34)NH2) for each peptide was calculated.
As to `CCCC[C@H](NC(=O)[C@H](CC(=O)O)NC(=O)[C@H](CCC(N)=O)NC(=O)[C@H](CC(C)C)NC(=O)[C@H](CCCCN)NC(=O)[C@H](CCCCN)NC(=O)[C@H](CCCNC(=N)N)NC(=O)[C@H](CC(C)C)NC(=O)[C@H](Cc1c[nH]c2ccccc12)NC(=O)[C@H](CCC(=O)O)NC(=O)[C@@H](NC(=O)[C@H](CCCNC(=N)N)NC(=O)C(C)(C)NC(=O)[C@H](CCCC)NC(=O)[C@H](CO)NC(=O)C(C)(C)NC(=O)[C@H](CC(C)C)NC(=O)[C@H](Cc1c[nH]cn1)NC(=O)[C@H](CCCCN)NC(=O)CNC(=O)[C@H](CC1CCCCC1)NC(=O)[C@H](CC(N)=O)NC(=O)[C@H](Cc1c[nH]cn1)NC(=O)[C@H](CCCC)NC(=O)[C@H](CC1CCCCC1)NC(=O)[C@H](CCC(N)=O)NC(=O)[C@@H](NC(=O)[C@H](CCC(=O)O)NC(=O)[C@H](CO)NC(=O)[C@@H](NC(=O)[C@@H](N)CO)C(C)C)[C@@H](C)CC)C(C)C)C(=O)N[C@@H](Cc1c[nH]cn1)C(=O)N[C@@H](CC(N)=O)C(=O)N[C@@H](Cc1ccc(O)cc1)C(N)=O` [[Cha^7,11, Nle^8,18,31, Aib^16,19, Tyr^34]hPTH(1-34)NH2] (H-SVSEIQ[Cha][Nle]HN[Cha]GKHL[Aib]S[Nle][Aib]RVEWLRKKLQD[Nle]HNY-NH2), the Kd turned out to be 40 nM.

On to `CC[C@H](C)[C@H](NC(=O)[C@H](CCC(=O)O)NC(=O)[C@H](CO)NC(=O)[C@@H](NC(=O)[C@@H](N)CO)C(C)C)C(=O)N[C@@H](CCC(N)=O)C(=O)N[C@@H](CC(C)C)C(=O)N[C@@H](CCSC)C(=O)N[C@@H](Cc1c[nH]cn1)C(=O)N[C@@H](CC(N)=O)C(=O)N[C@@H](CC(C)C)C(=O)NCC(=O)N[C@@H](CCCCN)C(=O)N[C@@H](Cc1c[nH]cn1)C(=O)N[C@@H](CC(C)C)C(=O)N[C@@H](CC(N)=O)C(=O)N[C@@H](CO)C(=O)N[C@@H](CCSC)C(=O)N[C@@H](CCC(=O)O)C(=O)N[C@@H](CCCNC(=N)N)C(=O)N[C@H](C(=O)N[C@@H](CCC(=O)O)C(=O)N[C@@H](Cc1c[nH]c2ccccc12)C(=O)N[C@@H](CC(C)C)C(=O)N[C@@H](CCCNC(=N)N)C(=O)N[C@@H](CCCCN)C(=O)N[C@@H](CCCCN)C(=O)N[C@@H](CC1CCCCC1)C(=O)N[C@@H](CCC(N)=O)C(=O)N[C@@H](CC(=O)O)C(=O)N[C@H](C(=O)N[C@@H](Cc1c[nH]cn1)C(=O)N[C@@H](CC(N)=O)C(=O)N[C@@H](Cc1ccccc1)C(N)=O)C(C)C)C(C)C` [[Cha^28]hPTH(1-34)NH2] (H-SVSEIQLMHNLGKHLNSMERVEWLRKK[Cha]QDVHNF-NH2), for which the Kd was determined as 50 nM.

For `CC[C@H](C)[C@H](NC(=O)[C@H](CCC(=O)O)NC(=O)[C@H](CO)NC(=O)[C@@H](NC(=O)[C@@H](N)CO)C(C)C)C(=O)N[C@@H](CCC(N)=O)C(=O)N[C@@H](CC1CCCCC1)C(=O)N[C@@H](CCSC)C(=O)N[C@@H](Cc1c[nH]cn1)C(=O)N[C@@H](CC(N)=O)C(=O)N[C@@H](CC1CCCCC1)C(=O)NCC(=O)N[C@@H](CCCCN)C(=O)N[C@@H](Cc1c[nH]cn1)C(=O)N[C@@H](CC(C)C)C(=O)N[C@@H](CC(N)=O)C(=O)N[C@@H](CO)C(=O)N[C@@H](CCSC)C(=O)NC(C)(C)C(=O)N[C@@H](CCCNC(=N)N)C(=O)N[C@H](C(=O)N[C@@H](CCC(=O)O)C(=O)N[C@@H](Cc1c[nH]c2ccccc12)C(=O)N[C@@H](CC(C)C)C(=O)N[C@@H](CCCNC(=N)N)C(=O)N[C@@H](CCCCN)C(=O)N[C@@H](CCCCN)C(=O)N[C@@H](CC(C)C)C(=O)N[C@@H](CCC(N)=O)C(=O)N[C@@H](CCCCN)C(=O)N[C@H](C(=O)N[C@@H](Cc1c[nH]cn1)C(=O)N[C@@H](CC(N)=O)C(=O)N[C@@H](Cc1ccccc1)C(N)=O)C(C)C)C(C)C` [[Cha^7,11, Aib^19, Lys^30]hPTH(1-34)NH2] (H-SVSEIQ[Cha]MHN[Cha]GKHLNSM[Aib]RVEWLRKKLQKVHNF-NH2), the Kd is 4 nM. As to `CCCC[C@H](NC(=O)[C@H](CO)NC(=O)[C@H](CC(N)=O)NC(=O)[C@H](CC(C)C)NC(=O)[C@H](Cc1c[nH]cn1)NC(=O)[C@H](CCCCN)NC(=O)CNC(=O)[C@H](CC(C)C)NC(=O)[C@H](CC(N)=O)NC(=O)[C@H](Cc1c[nH]cn1)NC(=O)[C@H](CCCC)NC(=O)[C@H](CC(C)C)NC(=O)[C@H](CCC(N)=O)NC(=O)[C@@H](NC(=O)[C@H](CCC(=O)O)NC(=O)[C@H](CO)NC(=O)[C@@H](NC(=O)[C@@H](N)CO)C(C)C)[C@@H](C)CC)C(=O)N[C@@H](CCC(=O)O)C(=O)N[C@@H](CCCNC(=N)N)C(=O)N[C@H](C(=O)N[C@@H](CCC(=O)O)C(=O)N[C@@H](Cc1c[nH]c2ccccc12)C(=O)N[C@@H](CC(C)C)C(=O)N[C@@H](CCCNC(=N)N)C(=O)N[C@@H](CCCCN)C(=O)N[C@@H](CC1CCCCC1)C(=O)N[C@@H](CC(C)C)C(=O)N[C@@H](CCC(N)=O)C(=O)N[C@@H](CC(=O)O)C(=O)N[C@H](C(=O)N[C@@H](Cc1c[nH]cn1)C(=O)N[C@@H](CC(N)=O)C(=O)N[C@@H](Cc1ccccc1)C(N)=O)C(C)C)C(C)C` [[Nle^8,18, Cha^27]hPTH(1-34)NH2] (H-SVSEIQL[Nle]HNLGKHLNS[Nle]ERVEWLRK[Cha]LQDVHNF-NH2), the equilibrium dissociation constant (Kd) was 50 nM. Consider `CC[C@H](C)[C@H](NC(=O)[C@H](CCC(=O)O)NC(=O)C(C)(C)NC(=O)[C@@H](NC(=O)[C@@H](N)CO)C(C)C)C(=O)N[C@@H](CCC(N)=O)C(=O)N[C@@H](CC(C)C)C(=O)N[C@@H](CCSC)C(=O)N[C@@H](Cc1c[nH]cn1)C(=O)N[C@@H](CC(N)=O)C(=O)N[C@@H](CC(C)C)C(=O)NCC(=O)N[C@@H](CCCCN)C(=O)N[C@@H](Cc1c[nH]cn1)C(=O)N[C@@H](CC(C)C)C(=O)N[C@@H](CC(N)=O)C(=O)N[C@@H](CO)C(=O)N[C@@H](CCSC)C(=O)N[C@@H](CCC(=O)O)C(=O)N[C@@H](CCCNC(=N)N)C(=O)N[C@H](C(=O)N[C@@H](CCC(=O)O)C(=O)N[C@@H](Cc1c[nH]c2ccccc12)C(=O)N[C@@H](CC(C)C)C(=O)N[C@@H](CCCNC(=N)N)C(=O)N[C@@H](CCCCN)C(=O)N[C@@H](CCCCN)C(=O)N[C@@H](CC(C)C)C(=O)N[C@@H](CCC(N)=O)C(=O)N[C@@H](CC(=O)O)C(=O)N[C@H](C(=O)N[C@@H](Cc1c[nH]cn1)C(=O)N[C@@H](CC(N)=O)C(=O)N[C@@H](Cc1ccccc1)C(N)=O)C(C)C)C(C)C` [[Aib^3]hPTH(1-34)NH2] (H-SV[Aib]EIQLMHNLGKHLNSMERVEWLRKKLQDVHNF-NH2), for which the Kd came out at 4 nM.

The same test, now with this note: Table II, 2 hrs at room temperature, read-out: Kd (half maximal inhibition of binding of mono-125I-[Nle8,18, Tyr34(3-125I)]bPTH(1-34)NH2).
With `CC[C@H](C)[C@H](NC(=O)[C@H](CO)NC(=O)[C@H](CCCCN)NC(=O)CNC(=O)[C@H](CCCCN)NC(=O)[C@H](CC(=O)O)NC(=O)[C@H](Cc1c[nH]cn1)NC(=O)[C@H](CC(C)C)NC(=O)[C@H](CC(C)C)NC(=O)[C@H](CCC(N)=O)NC(=O)[C@H](Cc1c[nH]cn1)NC(=O)[C@H](CCC(=O)O)NC(=O)[C@H](CO)NC(=O)[C@@H](NC(=O)[C@H](C)N)C(C)C)C(=O)N[C@@H](CCC(N)=O)C(=O)N[C@@H](CC(=O)O)C(=O)N[C@@H](CC(C)C)C(=O)N[C@@H](CCCNC(=N)N)C(=O)N[C@@H](CCCNC(=N)N)C(=O)N[C@@H](CCCNC(=N)N)C(=O)N[C@@H](CCC(=O)O)C(=O)NC1(C(=O)N[C@@H](CC(C)C)C(=O)N[C@@H](CCC(=O)O)C(=O)N[C@@H](CCCCN)C(=O)N[C@@H](CC(C)C)C(=O)N[C@@H](CC(C)C)C(=O)NC(C)(C)C(=O)N[C@@H](CCCCN)C(=O)N[C@@H](CC(C)C)C(=O)N[C@@H](Cc2c[nH]cn2)C(=O)N[C@H](C(=O)N[C@@H](C)C(N)=O)[C@@H](C)O)CCCCC1` [[Glu^22,25, Ahc^23, Lys^26,30, Leu^28,31, Aib^29]hPTHrP(1-34)NH2] (H-AVSEHQLLHDKGKSIQDLRRRE[Ac6c]LEKLL[Aib]KLHTA-NH2; N-terminus assumed), the Kd came to 70 nM.

For orientation: Kd means the constant that tells how readily two partners part at equilibrium.

For the origin of these results see US7632811B2, “Analogs of parathyroid hormone” (Societe de Conseils de Recherches et D'Applications …, priority 1995, dated 2009).
